# From US7317038B2, “Nerve regeneration promoters containing semaphorin inhibitor as the active ingredient” (Dainippon Sumitomo Pharma Co., Ltd., priority 2000, dated 2008)
# Tested on: COS7 cells
# Test: Effect on cell proliferation (MTT)
# Assay type: cell-based
# Details: two days
# Method: COS7 cells were seeded onto a 96-well plate (medium 100 μl/well) at 10000 cells per well. At the same time, SPF-3059-1 of various concentrations was added and the cells were cultivated for two days in the presence of 5% CO2 at 37° C. Each well was then added with 10 μl of MTT solution at 5 mg/ml and cultured for another one hour. Subsequently, the culture supernatant was removed and formazan (an MTT derivative produced in viable cells) accumulated in the cells was dissolved by the addition of 50 μl DMSO and then the absorbance at 570 nm was measured to determine the proliferation of COS7 cells. […] The longitudinal and lateral axes in the figure show cell proliferation and the SPF-3059-1 concentration, respectively. Besides, the standard deviation (n=4) was added to each column.
# The same effect on cell proliferation as in Example 9 was examined for the compounds, SPF-3059-1, SPF-3059-2 and SPF-3059-5. The wells with these compounds were served as samples, the wells with PBS were served as control, and the wells for which the experiment was carried out without adding the cells was served as blank. IC50 (μg/ml), the inhibitory rate for cell proliferation, was determined, which is calculated by the equation shown below. The inhibitory rate for cell proliferation (%)=(1−(absorbance of a sample well−absorbance of the blank well)/(absorbance of the control well−absorbance of the blank well))×100
structure (smiles),measurement,setting,value
CC(=O)c1c(C)c(C(=O)C2COc3cc(O)c(O)c(C(=O)O)c3C2=O)cc2c(=O)c3c(C(=O)O)c(O)c(O)cc3oc12 (centres unmarked) [SPF-3059-1],IC50,"Chlorocebus aethiops, COS-7, 48 h, read-out: IC50, inhibitory rate for cell proliferation",> 300 µg/mL
same,suppressing activity for cell proliferation (in words),,no suppressing activity
